Reference: patent US12421253B2 (Mirati Therapeutics, Inc., priority 2020, dated 2025)
pIC50: −log10 of the molar value.

Key:
KRas^G12D = target: T1, KRas^G12D (Homo sapiens, UniProt P01116, G12D); test: KRas binding assay (TR-FRET displacement of Cy5 labelled tracer)
T1 construct: […]; biotin (biotinylated); purchased Accelegan Inc

KRas^G12V = target: T2, KRas^G12V (Homo sapiens, UniProt P01116, G12V); test: as above
T2 construct: […]; biotin (biotinylated); purchased Accelegan Inc

KRas^G12R = target: T3, KRas^G12R (Homo sapiens, UniProt P01116, G12R); test: as above
T3 construct: […]; biotin (biotinylated); purchased Accelegan Inc

KRas^WT = target: T4, KRas^WT (Homo sapiens, UniProt P01116); test: as above
T4 construct: […]; biotin (biotinylated); purchased Accelegan Inc

KRas^G13D = KRas^G13D (Homo sapiens, UniProt P01116, G13D); test: biochemical
KRas^Q61H = KRas^Q61H (Homo sapiens, UniProt P01116, Q61H); test: biochemical
KRas^G12A = target: T5, KRas^G12A (Homo sapiens, UniProt P01116, G12A); test: KRas binding assay (TR-FRET displacement of Cy5 labelled tracer)
T5 construct: […]; biotin (biotinylated); purchased Accelegan Inc

KRas^G12S = target: T6, KRas^G12S (Homo sapiens, UniProt P01116, G12S); test: as above
T6 construct: […]; biotin (biotinylated); purchased Accelegan Inc

KRas^G12C = KRas^G12C (Homo sapiens, UniProt P01116, G12C); test: biochemical
Chain of KRas^G12C (P01116 1-169 isoform P01116-2 G12C): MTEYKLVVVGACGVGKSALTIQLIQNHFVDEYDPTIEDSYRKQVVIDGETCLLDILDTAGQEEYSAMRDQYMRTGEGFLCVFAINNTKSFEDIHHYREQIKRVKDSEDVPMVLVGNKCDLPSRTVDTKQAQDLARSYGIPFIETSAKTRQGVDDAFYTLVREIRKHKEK

T6 sequence (P01116 1-169 isoform P01116-2 G12S): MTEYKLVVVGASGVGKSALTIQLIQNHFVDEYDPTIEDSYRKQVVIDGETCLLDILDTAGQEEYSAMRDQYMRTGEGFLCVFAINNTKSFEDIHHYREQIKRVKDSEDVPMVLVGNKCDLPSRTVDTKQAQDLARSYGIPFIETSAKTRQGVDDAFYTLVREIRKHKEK
Chain of KRas^Q61H (P01116 1-169 isoform P01116-2 Q61H): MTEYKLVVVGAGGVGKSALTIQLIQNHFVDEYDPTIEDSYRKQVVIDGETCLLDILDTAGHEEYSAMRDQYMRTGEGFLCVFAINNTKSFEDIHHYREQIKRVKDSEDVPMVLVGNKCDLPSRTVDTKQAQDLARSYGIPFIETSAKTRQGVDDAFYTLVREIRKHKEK
T2 sequence (P01116 1-169 isoform P01116-2 G12V): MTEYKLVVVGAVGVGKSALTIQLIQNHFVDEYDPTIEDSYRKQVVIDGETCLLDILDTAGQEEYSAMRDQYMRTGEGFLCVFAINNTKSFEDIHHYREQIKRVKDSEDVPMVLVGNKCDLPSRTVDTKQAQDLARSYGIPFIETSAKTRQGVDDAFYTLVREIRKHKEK
T5 sequence (P01116 1-169 isoform P01116-2 G12A): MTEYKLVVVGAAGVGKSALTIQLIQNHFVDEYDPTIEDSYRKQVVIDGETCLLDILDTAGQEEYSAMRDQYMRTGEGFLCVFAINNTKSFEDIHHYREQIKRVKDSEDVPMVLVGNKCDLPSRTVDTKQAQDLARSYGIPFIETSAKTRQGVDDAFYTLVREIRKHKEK
T3 sequence (P01116 1-169 isoform P01116-2 G12R): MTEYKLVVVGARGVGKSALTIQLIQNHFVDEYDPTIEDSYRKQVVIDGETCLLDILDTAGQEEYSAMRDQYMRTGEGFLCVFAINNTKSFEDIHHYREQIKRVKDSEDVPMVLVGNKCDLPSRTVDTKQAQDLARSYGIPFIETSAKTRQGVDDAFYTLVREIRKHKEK
T1 sequence (P01116 1-169 isoform P01116-2 G12D): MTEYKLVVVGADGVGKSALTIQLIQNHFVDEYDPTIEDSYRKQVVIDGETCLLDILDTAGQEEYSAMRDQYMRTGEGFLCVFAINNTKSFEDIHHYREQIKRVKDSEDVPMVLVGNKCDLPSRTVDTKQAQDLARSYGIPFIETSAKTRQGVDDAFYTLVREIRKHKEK
T4 sequence (P01116 1-169 isoform P01116-2): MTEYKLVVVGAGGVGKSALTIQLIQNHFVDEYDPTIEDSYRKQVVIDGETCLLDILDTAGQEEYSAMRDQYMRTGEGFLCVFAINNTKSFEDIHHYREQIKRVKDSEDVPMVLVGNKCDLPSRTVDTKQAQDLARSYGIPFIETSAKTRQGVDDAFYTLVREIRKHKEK
Chain of KRas^G13D (P01116 1-169 isoform P01116-2 G13D): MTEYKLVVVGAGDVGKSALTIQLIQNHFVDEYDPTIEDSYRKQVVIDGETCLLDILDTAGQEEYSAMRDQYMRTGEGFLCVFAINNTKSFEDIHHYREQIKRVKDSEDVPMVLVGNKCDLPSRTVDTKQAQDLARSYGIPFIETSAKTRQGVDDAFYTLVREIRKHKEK

| pIC50 (KRas^G12D) | pIC50 (KRas^G12V) | pIC50 (KRas^G12R) | pIC50 (KRas^WT) | pIC50 (KRas^G13D) | pIC50 (KRas^Q61H) | pIC50 (KRas^G12A) | pIC50 (KRas^G12S) | pIC50 (KRas^G12C) | Structure (SMILES) |
| --- | --- | --- | --- | --- | --- | --- | --- | --- | --- |
| 4.80 | 5.62 | 6.12 | 5.66 | 5.49 | 5.61 | 5.53 | 5.67 | 5.89 | CCc1cccc2cccc(N3CCc4c(nc(OCC56CCCN5CCC6)nc4N4CC(CO)OC5(CCC5)C4)C3)c12 (stereo not drawn) [Example 129, (8-(7-(8-ethylnaphthalen-1-yl)-2-((tetrahydro-1H-pyrrolizin-7a(5H)-yl)methoxy)-5,6,7,8-tetrahydropyrido[3,4-d]pyrimidin-4-yl)-5-oxa-8-azaspiro[3.5]nonan-6-yl)methanol] |
| 5.29 | 5.90 | 5.91 | 6.11 | 5.94 | 6.02 | 5.84 | 5.89 | 5.96 | CCc1cccc2cccc(N3CCc4c(nc(OCC56CCCN5CCC6)nc4N4CCOC5(CCSC5)C4)C3)c12 (stereo not drawn) [Example 130, 9-(7-(8-ethylnaphthalen-1-yl)-2-((tetrahydro-1H-pyrrolizin-7a(5H)-yl)methoxy)-5,6,7,8-tetrahydropyrido[3,4-d]pyrimidin-4-yl)-6-oxa-2-thia-9-azaspiro[4.5]decane] |
| 4.91 | 5.93 | 5.85 | 5.46 | 5.26 | 5.34 | 5.60 | 5.55 | 5.83 | CCc1cccc2cccc(N3CCc4c(nc(OCC56CCCN5CCC6)nc4Nc4cnn(CC(N)=O)c4)C3)c12 [Example 139, 2-(4-((7-(8-ethylnaphthalen-1-yl)-2-((tetrahydro-1H-pyrrolizin-7a(5H)-yl)methoxy)-5,6,7,8-tetrahydropyrido[3,4-d]pyrimidin-4-yl)amino)-1H-pyrazol-1-yl)acetamide] |
| 5.28 | 5.62 | 5.84 | 5.72 | 5.75 | 5.65 | 5.78 | 5.70 | 5.93 | CCc1cccc2cccc(N3CCc4c(nc(OCC56CCCN5CCC6)nc4N4CCCC(c5nc(C)c(C(=O)NC6CCC6)o5)C4)C3)c12 (stereo not drawn) [Example 140, N-cyclobutyl-2-(1-(7-(8-ethylnaphthalen-1-yl)-2-((tetrahydro-1H-pyrrolizin-7a(5H)-yl)methoxy)-5,6,7,8-tetrahydropyrido[3,4-d]pyrimidin-4-yl)piperidin-3-yl)-4-methyloxazole-5-carboxamide] |

Continued, compound first:

| Structure (SMILES) | pIC50 (KRas^G12D) | pIC50 (KRas^G12V) | pIC50 (KRas^G12R) | pIC50 (KRas^WT) | pIC50 (KRas^G13D) | pIC50 (KRas^Q61H) | pIC50 (KRas^G12A) | pIC50 (KRas^G12S) | pIC50 (KRas^G12C) |
| --- | --- | --- | --- | --- | --- | --- | --- | --- | --- |
| CCc1cccc2cccc(N3CCc4c(nc(OCC56CCCN5CCC6)nc4NC4CC(=O)N(c5cnn(C)c5)C4)C3)c12 (stereo not drawn) [Example 126, 4-((7-(8-ethylnaphthalen-1-yl)-2-((tetrahydro-1H-pyrrolizin-7a(5H)-yl)methoxy)-5,6,7,8-tetrahydropyrido[3,4-d]pyrimidin-4-yl)amino)-1-(1-methyl-1H-pyrazol-4-yl)pyrrolidin-2-one] | 6.14 | 5.56 | 5.48 | 5.37 | 5.25 | 5.26 | 5.23 | 5.54 | 5.56 |
| CCc1cccc2cccc(N3CCc4c(nc(OCC56CCCN5CCC6)nc4N(C)Cc4c[nH]nn4)C3)c12 [Example 127, N-((1H-1,2,3-triazol-4-yl)methyl)-7-(8-ethylnaphthalen-1-yl)-N-methyl-2-((tetrahydro-1H-pyrrolizin-7a(5H)-yl)methoxy)-5,6,7,8-tetrahydropyrido[3,4-d]pyrimidin-4-amine] | 5.69 | 6.13 | 5.87 | 5.81 | 5.74 | 5.76 | 5.68 | 5.85 | 5.94 |
| CCc1cccc2cccc(N3CCc4c(nc(OCC56CCCN5CCC6)nc4N4CCCC(C(C)O)C4)C3)c12 (stereo not drawn) [Example 131, 1-(1-(7-(8-ethylnaphthalen-1-yl)-2-((tetrahydro-1H-pyrrolizin-7a(5H)-yl)methoxy)-5,6,7,8-tetrahydropyrido[3,4-d]pyrimidin-4-yl)piperidin-3-yl)ethan-1-ol] | 5.67 | 5.90 | 6.11 | 5.85 | 5.87 | 5.83 | 5.92 | 5.87 | 5.97 |
| CCc1cccc2cccc(N3CCc4c(nc(OCC56CCCN5CCC6)nc4N4CCCC(n5nccn5)C4)C3)c12 (stereo not drawn) [Example 132, 4-(3-(2H-1,2,3-triazol-2-yl)piperidin-1-yl)-7-(8-ethylnaphthalen-1-yl)-2-((tetrahydro-1H-pyrrolizin-7a(5H)-yl)methoxy)-5,6,7,8-tetrahydropyrido[3,4-d]pyrimidine] | 5.41 | 5.78 | 6.11 | 5.84 | 5.84 | 5.77 | 5.93 | 5.78 | 5.88 |
| CCc1cccc2cccc(N3CCc4c(nc(OCC56CCCN5CCC6)nc4N4CC(C)CC(CO)C4)C3)c12 (stereo not drawn) [Example 133, (1-(7-(8-ethylnaphthalen-1-yl)-2-((tetrahydro-1H-pyrrolizin-7a(5H)-yl)methoxy)-5,6,7,8-tetrahydropyrido[3,4-d]pyrimidin-4-yl)-5-methylpiperidin-3-yl)methanol] | 6.02 | 6.03 | 6.11 | 5.87 | 5.82 | 5.84 | 5.99 | 5.99 | 6.06 |
| CCc1cccc2cccc(N3CCc4c(nc(OCC56CCCN5CCC6)nc4N4CCCC(c5ncc(C)s5)C4)C3)c12 (stereo not drawn) [Example 135, 2-(1-(7-(8-ethylnaphthalen-1-yl)-2-((tetrahydro-1H-pyrrolizin-7a(5H)-yl)methoxy)-5,6,7,8-tetrahydropyrido[3,4-d]pyrimidin-4-yl)piperidin-3-yl)-5-methylthiazole] | 5.39 | 5.54 | 6.07 | 5.55 | 5.55 | 5.55 | 5.57 | 5.62 | 5.71 |
| CCc1cccc2cccc(N3CCc4c(nc(OCC56CCCN5CCC6)nc4NCc4nnc(N)o4)C3)c12 [Example 136, 5-(((7-(8-ethylnaphthalen-1-yl)-2-((tetrahydro-1H-pyrrolizin-7a(5H)-yl)methoxy)-5,6,7,8-tetrahydropyrido[3,4-d]pyrimidin-4-yl)amino)methyl)-1,3,4-oxadiazol-2-amine] | 5.47 | 6.06 | 5.79 | 5.81 | 5.48 | 5.64 | 5.81 | 5.70 | 6.01 |
| CCc1cccc2cccc(N3CCc4c(nc(OCC56CCCN5CCC6)nc4N4CCCC(N5CCCC5=O)C4)C3)c12 (stereo not drawn) [Example 137, 1-(1-(7-(8-ethylnaphthalen-1-yl)-2-((tetrahydro-1H-pyrrolizin-7a(5H)-yl)methoxy)-5,6,7,8-tetrahydropyrido[3,4-d]pyrimidin-4-yl)piperidin-3-yl)pyrrolidin-2-one] | 5.49 | 5.83 | 5.94 | 5.78 | 5.87 | 5.83 | 6.02 | 5.97 | 5.99 |
